The record followed here is US20180327355A1, “ISOINDOLINE DERIVATIVES” (priority 2015, published 2018).

The structures appear in SMILES notation.

The subject of the first assay is HIV. Kind of assay: MT4 assay (anti-HIV activity). It is filed as cell-based. To be noted: 96 h. The procedure: Antiviral HIV activity and cytotoxicity values for compounds of the invention from Table 1 were measured in parallel in the HTLV-1 transformed cell line MT-4 based on the method previously described (Hazen et al., 2007, In vitro antiviral activity of the novel, tyrosyl-based human immunodeficiency virus (HIV) type 1 protease inhibitor brecanavir (GW640385) in combination with other antiretrovirals and against a panel of protease inhibitor-resistant HIV (Hazen et al., “In vitro antiviral activity of the novel, tyrosyl-based human immunodeficiency virus (HIV) type 1 protease inhibitor brecanavir (GW640385) in combination with other antiretrovirals and against a panel of protease inhibitor-resistant HIV”, Antimicrob. Agents Chemother. 2007, 51: 3147-3154; and Pauwels et al., “Sensitive and rapid assay on MT-4 cells for the detection of antiviral compounds against the AIDS virus”, J. of Virological Methods 1987, 16: 171-185).
Luciferase activity was measured 96 hours later by adding a cell titer glo (Promega, Madison, Wis.). Percent inhibition of cell protection data was plotted relative to no compound control. Under the same condition, cytotoxicity of the compounds was determined using cell titer Glo™ (Promega, Madison, Wis). ICsos were determined from a 10 point dose response curve using 3-4-fold serial dilution for each compound, which spans a concentration range >1000 fold.
These values are plotted against the molar compound concentrations using the standard four parameter logistic equation:
y=((Vmax*x̂n)/(K̂n+x̂n))+Y2
Y2=minimum y n=slope factor
Vmax=maximum y x=compound concentration [M]
Broadly, the IC50 is the midpoint of a concentration-inhibition curve. On to `C/C(=C(/C)c1c(C)c2c(c(C)c1[C@H](OC(C)(C)C)C(=O)O)CN(C(=O)c1cccc(F)c1)C2)c1ccccc1` [Example 23, (S,E)-2-(tert-butoxy)-2-(2-(3-fluorobenzoyl)-4,7-dimethyl-6-(3-phenylbut-2-en-2-yl)isoindolin-5-yl)acetic acid], for which the IC50 stood at 0.044 µM.

The assay is the same for the next values; noted with them: MT4 assay, HTLV-1 transformed cell line MT-4, readout 96 hours, cell titer glo; read-out: IC50.
Regarding `Cc1c(C#Cc2ccccc2)c([C@H](OC(C)(C)C)C(=O)O)c(C)c2c1CN(C(=O)c1cccc(F)c1)C2` [Example 1, (S)-2-(tert-butoxy)-2-(2-(3-fluorobenzoyl)-4,7-dimethyl-6-(phenylethynyl)isoindolin-5-yl)acetic acid], the IC50 is 1.03 µM.
Consider `C#Cc1c(C)c2c(c(C)c1[C@H](OC(C)(C)C)C(=O)O)CN(C(=O)c1cccc(F)c1)C2` [Example 2, (S)-2-(tert-butoxy)-2-(6-ethynyl-2-(3-fluorobenzoyl)-4,7-dimethylisoindolin-5-yl)acetic acid], for which the IC50 came out at 3.68 µM.
For the compound `Cc1c2c(c(C)c([C@H](OC(C)(C)C)C(=O)O)c1Cc1ccccc1)CN(C(=O)c1cccc(F)c1)C2` [Example 3, (S)-2-(6-benzyl-2-(3-fluorobenzoyl)-4,7-dimethylisoindolin-5-yl)-2-(tert-butoxy)acetic acid], the IC50 worked out at 0.651 µM.
Turning to `Cc1c2c(c(C)c([C@H](OC(C)(C)C)C(=O)O)c1CC(=O)N1CCCCC1)CN(C(=O)c1cccc(F)c1)C2` [Example 4, (S)-2-(tert-butoxy)-2-(2-(3-fluorobenzoyl)-4,7-dimethyl-6-(2-oxo-2-(piperidin-1-yl)ethyl)isoindolin-5-yl)acetic acid], the IC50 came out at 10.2 µM.
Consider `Cc1c2c(c(C)c([C@H](OC(C)(C)C)C(=O)O)c1CC(=O)NC1CCCCC1)CN(C(=O)c1cccc(F)c1)C2` [Example 5, (S)-2-(tert-butoxy)-2-(6-(2-(cyclohexylamino)-2-oxoethyl)-2-(3-fluorobenzoyl)-4,7-dimethylisoindolin-5-yl)acetic acid], for which the IC50 is 50 µM.
As to `Cc1c2c(c(C)c([C@H](OC(C)(C)C)C(=O)O)c1CC(=O)Nc1ccccc1)CN(C(=O)c1cccc(F)c1)C2` [Example 6, (S)-2-(tert-butoxy)-2-(2-(3-fluorobenzoyl)-4,7-dimethyl-6-(2-oxo-2-(phenylamino)ethyl)isoindolin-5-yl)acetic acid], the IC50 came out at 9.63 µM.
In the case of `Cc1c2c(c(C)c([C@H](OC(C)(C)C)C(=O)O)c1CC(=O)NCC(C)(C)C)CN(C(=O)c1cccc(F)c1)C2` [Example 7, (S)-2-(tert-butoxy)-2-(2-(3-fluorobenzoyl)-4,7-dimethyl-6-(2-(neopentylamino)-2-oxoethyl)isoindolin-5-yl)acetic acid], the IC50 was 38 µM.
In the case of `Cc1ccc(C(=O)Nc2c(C)c3c(c(C)c2[C@H](OC(C)(C)C)C(=O)O)CN(C(=O)c2cccc(F)c2)C3)cc1` [Example 8, (S)-2-(tert-butoxy)-2-(2-(3-fluorobenzoyl)-4,7-dimethyl-6-(4-methylbenzamido)isoindolin-5-yl)acetic acid], the IC50 is 50 µM.
As for `Cc1c2c(c(C)c([C@H](OC(C)(C)C)C(=O)O)c1NC(=O)CC1CCCCC1)CN(C(=O)c1cccc(F)c1)C2` [Example 9, (S)-2-(tert-butoxy)-2-(6-(2-cyclohexylacetamido)-2-(3-fluorobenzoyl)-4,7-dimethylisoindolin-5-yl)acetic acid], the IC50 is 50 µM.
On to `Cc1c2c(c(C)c([C@H](OC(C)(C)C)C(=O)O)c1NC(=O)c1ccccc1)CN(C(=O)c1cccc(F)c1)C2` [Example 10, (S)-2-(6-benzamido-2-(3-fluorobenzoyl)-4,7-dimethylisoindolin-5-yl)-2-(tert-butoxy)acetic acid], for which the 50% inhibitory concentration (IC50) came out at 4.1 µM.
For `Cc1c2c(c(C)c([C@H](OC(C)(C)C)C(=O)O)c1NC(=O)N1CCCCC1)CN(C(=O)c1cccc(F)c1)C2` [Example 11, (S)-2-(tert-butoxy)-2-(2-(3-fluorobenzoyl)-4,7-dimethyl-6-(piperidine-1-carboxamido)isoindolin-5-yl)acetic acid], the half-inhibitory concentration (IC50) was 3.12 µM.
In the case of `Cc1ccc(C(=O)N(C)c2c(C)c3c(c(C)c2[C@H](OC(C)(C)C)C(=O)O)CN(C(=O)c2cccc(F)c2)C3)cc1` [Example 12, (S)-2-(tert-butoxy)-2-(6-(N,4-dimethylbenzamido)-2-(3-fluorobenzoyl)-4,7-dimethylisoindolin-5-yl)acetic acid], the IC50 is 33.9 µM.
On to `Cc1c2c(c(C)c(N(C)C(=O)CC3CCCCC3)c1[C@H](OC(C)(C)C)C(=O)O)CN(C(=O)c1cccc(F)c1)C2` [Example 13, (S)-2-(tert-butoxy)-2-(6-(2-cyclohexyl-N-methylacetamido)-2-(3-fluorobenzoyl)-4,7-dimethylisoindolin-5-yl)acetic acid], for which the IC50 was found to be 44.6 µM.
Turning to `Cc1c(/C=C/C2CCCCC2)c([C@H](OC(C)(C)C)C(=O)O)c(C)c2c1CN(C(=O)c1cccc(F)c1)C2` [Example 14, (S,E)-2-(tert-butoxy)-2-(6-(2-cyclohexylvinyl)-2-(3-fluorobenzoyl)-4,7-dimethylisoindolin-5-yl)acetic acid], the IC50 was determined as 0.086 µM.
`Cc1c(/C=C/C2CCOCC2)c([C@H](OC(C)(C)C)C(=O)O)c(C)c2c1CN(C(=O)c1cccc(F)c1)C2` [Example 15, (S,E)-2-(tert-butoxy)-2-(2-(3-fluorobenzoyl)-4,7-dimethyl-6-(2-(tetrahydro-2H-pran-4-yl)vinyl)isoindolin-5-yl)acetic acid]: the 50% inhibitory concentration (IC50) amounted to 1.31 µM.
In the case of `Cc1c(/C=C/CC(C)(C)C)c([C@H](OC(C)(C)C)C(=O)O)c(C)c2c1CN(C(=O)c1cccc(F)c1)C2` [Example 16, (S,E)-2-(tert-butoxy)-2-(6-(4,4-dimethylpent-1-en-1-yl)-2-(3-fluorobenzoyl)-4,7-dimethylisoindolin-5-yl)acetic acid], the IC50 turned out to be 0.12 µM.
`Cc1c(/C=C/c2ccccc2)c([C@H](OC(C)(C)C)C(=O)O)c(C)c2c1CN(C(=O)c1cccc(F)c1)C2` [Example 17, (S,E)-2-(tert-butoxy)-2-(2-(3-fluorobenzoyl)-4,7-dimethyl-6-styrylisoindolin-5-yl)acetic acid]: the IC50 is 0.124 µM.
Same read-out and setting: the figure for `Cc1c2c(c(C)c([C@H](OC(C)(C)C)C(=O)O)c1CCc1ccccc1)CN(C(=O)c1cccc(F)c1)C2` [Example 18, (S)-2-(tert-butoxy)-2-(2-(3-fluorobenzoyl)-4,7-dimethyl-6-phenethylisoindolin-5-yl)acetic acid] is 1.09 µM; for `Cc1ccc(/C=C/c2c(C)c3c(c(C)c2[C@H](OC(C)(C)C)C(=O)O)CN(C(=O)c2cccc(F)c2)C3)cc1` [Example 19, (S,E)-2-(tert-butoxy)-2-(2-(3-fluorobenzoyl)-4,7-dimethyl-6-(4-methylstyryl)isoindolin-5-yl)acetic acid] it is 50 µM; for `Cc1ccc(CCc2c(C)c3c(c(C)c2[C@H](OC(C)(C)C)C(=O)O)CN(C(=O)c2cccc(F)c2)C3)cc1` [Example 20, (S)-2-(tert-butoxy)-2-(2-(3-fluorobenzoyl)-4,7-dimethyl-6-(4-methylphenethyl)isoindolin-5-yl)acetic acid] it is 50 µM.
The same measure, in the same setting: the figure for `C/C(=C\c1c(C)c2c(c(C)c1[C@H](OC(C)(C)C)C(=O)O)CN(C(=O)c1cccc(F)c1)C2)c1ccccc1` [Example 21, (S,E)-2-(tert-butoxy)-2-(2-(3-fluorobenzoyl)-4,7-dimethyl-6-(2-phenylprop-1-en-1-yl)isoindolin-5-yl)acetic acid] is 0.103 µM; for `C/C(=C\c1ccccc1)c1c(C)c2c(c(C)c1[C@H](OC(C)(C)C)C(=O)O)CN(C(=O)c1cccc(F)c1)C2` [Example 22, (S,E)-2-(tert-butoxy)-2-(2-(3-fluorobenzoyl)-4,7-dimethyl-6-(1-phenylprop-1-en-2-yl)isoindolin-5-yl)acetic acid] it is 0.039 µM; for `C/C(=C\c1cc(F)c2c(c1C)CCCO2)c1c(C)c2c(c(C)c1[C@H](OC(C)(C)C)C(=O)O)CN(C(=O)c1cccc(F)c1)C2` [Example 24, (S,E)-2-(tert-butoxy)-2-(6-(1-(8-fluoro-5-methylchroman-6-yl)prop-1-en-2-yl)-2-(3-fluorobenzoyl)-4,7-dimethylisoindolin-5-yl)acetic acid] it is 50 µM.
Take `Cc1c(/C=C/c2ccc3c(c2)CCCO3)c([C@H](OC(C)(C)C)C(=O)O)c(C)c2c1CN(C(=O)c1cccc(F)c1)C2` [Example 25, (S,E)-2-(tert-butoxy)-2-(6-(2-(chroman-6-yl)vinyl)-2-(3-fluorobenzoyl)-4,7-dimethylisoindolin-5-yl)acetic acid]: the IC50 came out at 33.9 µM.
On to `Cc1c(/C=C/c2cc(F)c3c(c2C)CCCO3)c([C@H](OC(C)(C)C)C(=O)O)c(C)c2c1CN(C(=O)c1cccc(F)c1)C2` [Example 26], for which the half-inhibitory concentration (IC50) was found to be 50 µM.
On to `Cc1c(/C=C\c2ccccc2)c([C@H](OC(C)(C)C)C(=O)O)c(C)c2c1CN(C(=O)c1cccc(F)c1)C2` [Example 27, (S,Z)-2-(tert-butoxy)-2-(2-(3-fluorobenzoyl)-4,7-dimethyl-6-styrylisoindolin-5-yl)acetic acid], for which the IC50 is 0.868 µM.
